# Where two headings read alike, the source gives them in different places.
# Key:
# [1] = Slurry conversions on Form III and Form III/hydrate (XRPD); format: physicochemical; design: key: Form III; hydrate
# Procedure: 20 mg Form III with 0.25 ml solvent (2-propanol; or 2-propanone/water (8/2, v/v); or methanol/water (8/2, v/v)) was deposited in a vial. For each solvent, 3 vials were prepared and stored each at different temperatures (4° C., RT, 40° C.) for two days. After storage, the slurry was spread on a paper filter, the solid fractions were collected and dried 2 hours at RT. In a further experiment, the Form III was seeded with the hydrate using methanol/water (8/2, v/v) as the solvent. The polymorphic composition was measured using XRPD.
# [2] = Thermal conversions in DSC oven (XRPD); format: physicochemical
# Procedure: Form III or hydrate form were thermally treated in a DSC oven (heating rate 10° C./min) up to selected temperatures (isotherm for 1 min) using an open sample pan. The selected temperatures are for Form III: 110° C. and 170° C.; and for hydrate form: 70° C., 110° C. and 170° C. The polymorphic composition of the obtained fractions was measured by XRPD. Table 12 summarises XRPD patterns in DSC treated Form III. Table 13 summarises XRPD patterns in DSC treated hydrate
# [3] = Aqueous solubility of Forms I, III and hydrate at different pH; format: physicochemical
# Procedure: Solubility of polymorph Forms I and III and the hydrate form of the compound of formula (I) was tested in aqueous conditions at different pH values.
# [4] = Water adsorption (hygroscopicity) of salts of compound (I); format: physicochemical; conditions: for Water adsorbed: dried 1 h at 25° C. under dry nitrogen flow
# Procedure: Free base of compound (I) (3 g; 7.95 mmol) was dissolved in absolute ethanol (40 mL) and heated to 78° C. An acid (HCl 6M in 2-propanol, 2.0 ml (12 mmol); HBr 48% in water, 0.98 mL (8.75 mmol); methane sulphonic acid, 917 mg (9.54 mmol); ethane sulphonic acid, 1.05 g (9.54 mmol) or p-toluene sulphonic acid monohydrate (1.66 g (8.75 mmol)) was added to the hot reaction mixture. The reaction mixture was allowed to cool to room temperature. The resulting precipitate was filtered off, washed with ethanol and dried under vacuum at 60° C.
# The obtained solids were analysed by acid titration, Karl-Fisher titration and HPLC. A physical characterisation was performed (DSC, TGA, XRD and IR, DVS).
# [5] = rat, in vivo, po
# Procedure: (§1) Five male SD rats (225±11 g) were used per salt form. From each rat a complete plasma concentration time profile was obtained. Tap water and food were available ad libitum. The test involved salts of compound (I) with HBr, HCl, methanesulphonic acid (mesylate), ethanesulphonic acid (esylate) or p-toluenesulphonic acid (tosylate). The individual salts were dispersed in a 0.5% methocel suspension to a final concentration of 1 mg base eq./ml. The formulations were stored at room temperature.
# (§2) Administration was oral by gastric intubation: 10 ml/kg to obtain a dose of 10 mg base eq./kg.
# (§3) Blood samples were collected 30 min, 1, 2, 4, 7 and 24 h after dose administration.
# (§4) Blood was collected by multiple sampling from a tail vein into Multivette® 600 K3E tubes (Sarstedt). Samples were placed immediately on melting ice and plasma was obtained following centrifugation at 4° C. for 10 minutes at approximately 1900×g. All samples were shielded from daylight and stored at ≦−18° C. prior to analysis.
# (§5) A limited pharmacokinetic analysis was performed using WinNonlin™ Professional (Version 5.1). A non-compartmental analysis using the lin/log trapezoidal rule with lin/log interpolation was used for all data.
# [6] = Water solubility of salts of compound (I); format: physicochemical; conditions: 24 hours at 20° C.; for Measured pH: saturated solution in water; for Solubility: water, UV spectrometry
# Procedure: An excess of different salts of compound (I) was agitated with water during 24 hours at 20° C. Following filtration, the concentration of compound (I) in the solution was determined by UV spectrometry.
# [7] = Absorption and plasma kinetics after oral administration of salts to rat; conditions: male SD rats, oral 10 mg base eq./kg
# Procedure: as §1, §2, §3, §4, §5
compound,measurement,setting,value
"Cn1cc(-c2ccc3nnc(C(F)(F)c4ccc5ncccc5c4)n3n2)cn1 [Form III, 6-{difluoro[6-(1-methyl-1H-pyrazol-4-yl)[1,2,4]triazolo[4,3-b]pyridazin-3-yl]methyl}quinoline]",Polymorphic composition (XRPD) after slurry,"[1]; 2-propanol, 4° C., two days",III
same,Polymorphic composition (XRPD) after slurry,"[1]; 2-propanol, 40° C., two days",III
same,Polymorphic composition (XRPD) after slurry,"[1]; 2-propanol, RT, two days",III
same,Polymorphic composition (XRPD) after slurry,"[1]; 2-propanone/water (8/2, v/v), 4° C., two days",hy
same,Polymorphic composition (XRPD) after slurry,"[1]; 2-propanone/water (8/2, v/v), 40° C., two days",hy
same,Polymorphic composition (XRPD) after slurry,"[1]; 2-propanone/water (8/2, v/v), RT, two days",hy
same,Polymorphic composition (XRPD) after slurry,"[1]; methanol/water (8/2, v/v) containing hydrate seeds, 4° C.",III
same,Polymorphic composition (XRPD) after slurry,"[1]; methanol/water (8/2, v/v) containing hydrate seeds, 40° C.",III
same,Polymorphic composition (XRPD) after slurry,"[1]; methanol/water (8/2, v/v) containing hydrate seeds, RT",III
same,Polymorphic composition (XRPD) after slurry,"[1]; methanol/water (8/2, v/v), 4° C., two days",III
same,Polymorphic composition (XRPD) after slurry,"[1]; methanol/water (8/2, v/v), 40° C., two days",III
same,Polymorphic composition (XRPD) after slurry,"[1]; methanol/water (8/2, v/v), RT, two days",III
same,XRPD measured composition,"[2]; DSC treated Form III, up to 110° C.",Form III
same,XRPD measured composition,"[2]; DSC treated Form III, up to 170° C.",Form I
same,XRPD measured composition,[2]; starting Form III,Form III
same,Solubility,[3]; 0.01 HCl,78 µg/mL
same,Solubility,[3]; 0.1 HCl,970 µg/mL
same,Solubility,[3]; pH2,130 µg/mL
same,Solubility,[3]; pH4,3 µg/mL
same,Solubility,[3]; pH6,1 µg/mL
same,Solubility,[3]; pH8,1 µg/mL
same,Solubility,[3]; pH10,2 µg/mL
CCS(=O)(=O)O.Cn1cc(-c2ccc3nnc(C(F)(F)c4ccc5ncccc5c4)n3n2)cn1 [esylate salt],Hygroscopicity,[4],hygroscopic
same,Water adsorbed,[4]; at high relative humidity,up to 34%
same,Tmax,[5],1.6 ± 0.5 h
same,t1/2 (4-24 h),[5],3.3 ± 0.4 h
same,Measured pH,[6],pH = 2.1
same,Solubility,[6],0.025 g/100 ml H2O
CS(=O)(=O)O.Cn1cc(-c2ccc3nnc(C(F)(F)c4ccc5ncccc5c4)n3n2)cn1 [mesylate salt],Hygroscopicity,[4],hygroscopic
same,Water adsorbed,[4]; at high relative humidity,up to 4.5%
same,Tmax,[5],1.2 ± 0.4 h
same,t1/2 (4-24 h),[5],3.7 ± 0.6 h
same,Measured pH,[6],pH = 1.9
same,Solubility,[6],0.047 g/100 ml H2O
Cc1ccc(S(=O)(=O)O)cc1.Cn1cc(-c2ccc3nnc(C(F)(F)c4ccc5ncccc5c4)n3n2)cn1 [tosylate salt],Hygroscopicity,[4],non-hygroscopic
same,Water adsorbed,[4]; depending on the atmospheric humidity,up to 0.2%
same,"Plasma concentration, Mean ± SD","[7]; 0.5 hours, 0.5% methocel suspension (LLOQ given in ng/ml)",2193 ± 1031
same,"Plasma concentration, Mean ± SD",[7]; 1 hour,2998 ± 1349
same,"Plasma concentration, Mean ± SD",[7]; 2 hours,3274 ± 995
same,"Plasma concentration, Mean ± SD",[7]; 4 hours,2512 ± 960
same,"Plasma concentration, Mean ± SD",[7]; 7 hours,1625 ± 537
same,"Plasma concentration, Mean ± SD",[7]; 24 hours,47.9 ± 24.0
same,AUC0-24 h,[7]; Mean ± SD,24307 ± 7457 ng·h/mL
same,AUC0-inf,[7]; Mean ± SD,24558 ± 7503 ng·h/mL
same,Cmax,[7]; Mean ± SD,3380 ± 944 ng/mL
same,Tmax,[7]; Mean ± SD,2.0 ± 1.2 h
same,t1/2 (4-24 h),[7]; Mean ± SD,3.4 ± 0.6 h
same,Measured pH,[6],pH = 2.1
same,Solubility,[6],0.023 g/100 ml H2O

# Reference: US8629144B2, “Polymorphic and hydrate forms, salts and process for preparing 6-{difluoro[6-(1-methyl-1H-pyrazol-4-yl)[1,2,4]triazolo[4,3-b]pyridazin-3-yl]methyl}quinoline” (Janssen Pharmaceutica NV, priority 2007, dated 2014)
